Laboratory results as given in patent publication US20070093505A1, “2,3-Substituted 5,6-diaryl-pyrazine derivatives as cb1 modulators” (ASTRAZENECA AB, priority 2003, published 2007).

Biological target: T1, hCB1 (Homo sapiens, UniProt P21554)
T1 construct: expressed in transfected cells
Assay: [35S]-GTPγS binding assay on membranes from cells stably transfected with the CB1 gene, inhibition of agonist CP55940
Format: biochemical
Conditions: EC80 concentration of agonist CP55940, membranes of CB1-transfected cells
From the text: Compounds of the present invention are active against the receptor product of the CB1 gene. The compounds of the present invention are active at the CB1 receptor (IC50<1 micromolar). Most preferred compounds have IC50<200 nanomolar. The affinity of the compounds of the invention for central cannabinoid receptors is demonstrable in methods described in Devane et al., Molecular Pharmacology, 1988, 34,605 or those described in WO01/70700 or EP 656354. Alternatively the assay may be performed as follows.
10 μg of membranes prepared from cells stably transfected with the CB1 gene were suspended in […] of 100 mM NaCl, 5 mM MgCl2, 1 mM EDTA, 50 mM HEPES (pH 7.4), 1 mM DTT, 0.1% BSA and 100 μM GDP. To this was added an EC80 concentration of agonist (CP55940), the required concentration of test compound and 0.1 μCi [^35S]-GTPγS. […] Filters were then covered with scintilant and counted for the amount of [^35S]-GTPγS retained by the filter.
Activity is measured in the absence of all ligands (minimum activity) or in the presence of an EC80 concentration of CP55940 (maximum activity). […] At various concentrations of novel ligand, activity is calculated as a percentage of the maximum activity and plotted. The data are fitted using the equation y=A+((B−A)/1+((C/x)UD)) and the IC50 value determined as the concentration required to give half maximal inhibition of GTPγS binding under the conditions used.

T1 sequence (P21554 whole entry): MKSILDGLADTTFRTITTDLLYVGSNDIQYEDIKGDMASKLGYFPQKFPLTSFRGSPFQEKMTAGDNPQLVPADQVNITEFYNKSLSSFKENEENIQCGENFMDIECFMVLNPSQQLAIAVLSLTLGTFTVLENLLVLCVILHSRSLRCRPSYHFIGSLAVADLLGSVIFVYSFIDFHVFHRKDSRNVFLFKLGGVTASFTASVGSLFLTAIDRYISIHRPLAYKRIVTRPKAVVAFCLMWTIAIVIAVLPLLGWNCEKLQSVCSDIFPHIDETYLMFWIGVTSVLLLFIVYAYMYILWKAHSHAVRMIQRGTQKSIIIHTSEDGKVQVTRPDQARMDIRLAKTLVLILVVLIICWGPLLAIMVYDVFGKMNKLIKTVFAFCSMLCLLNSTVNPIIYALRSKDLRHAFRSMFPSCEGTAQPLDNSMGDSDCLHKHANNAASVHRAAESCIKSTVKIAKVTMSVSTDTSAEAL

## CC1COC(c2nc(-c3ccc(Cl)cc3)c(-c3ccc(Cl)cc3)nc2C(=O)OC(C)(C)C)=N1 (stereo not shown) [Example 5, 5,6-bis(4-chlorophenyl)-3-(4-methyl-4,5-dihydrooxazol-2-yl)-pyrazine-2-carboxylic acid tert-butylester]
  IC50: 1.8 nM
